# Source: patent US20230085307A1, “PYRIDAZINONE COMPOUND AND HERBICIDE” (NISSAN CHEMICAL CORPORATION, priority 2019, published 2023)
# What was measured:
# [1] = system: southern crabgrass; assay: Test Example 5: herbicidal effect by foliage application, plastic box (Table 20, symbol F); assay type: in vivo, southern crabgrass (Digitaria ciliaris); details: foliage application, 320 g/ha, three weeks after application
# Summary of the method: (§1)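 Sow seeds spot-wise in sterilized diluvial soil; cover with ~1.5 cm soil. Grow 14 days in greenhouse, 25° C. to 30° C. Spray foliage with emulsion diluted to predetermined amount. Rate effect after 3 weeks.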
# [2] = system: southern crabgrass; assay: Test Example 4: herbicidal effect by soil treatment (Table 19, symbol F); assay type: in vivo, southern crabgrass (Digitaria ciliaris); details: amount of applied herbicide 320 g/ha
# Summary of the method: (§2)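 Soil-surface application: an emulsion agent diluted with water to the predetermined dose is sprayed uniformly over seeds lying under roughly 1.5 cm of sterilized diluvial soil. Boxes stay in a greenhouse at 25° C. to 30° C. Three weeks later, each species is graded on previously defined criteria.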
# [3] = system: chickweed; assay: Test Example 5: herbicidal effect by foliage application, plastic box (Table 20, symbol P); assay type: in vivo, common chickweed (Stellaria media); details: foliage application, 320 g/ha, three weeks after application
# Summary of the method: as §1
# [4] = system: rice flat sedge; assay: Test Example 3: herbicidal effect by foliage application, Wagner pot (Table 18, symbol E); assay type: in vivo, rice flat sedge (Cyperus iria); details: 320 g/ha
# Summary of the method: (§3)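 Plants were sown in alluvial soil held under 0.1–0.5 cm standing water and grown 14 days in a greenhouse at 25–30 °C. An emulsifiable formulation, water-diluted to the set dose, was then sprayed onto the foliage, and effects were scored three weeks later using previously defined criteria.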
# [5] = system: persian speedwell; assay: Test Example 5: herbicidal effect by foliage application, plastic box (Table 20, symbol R); assay type: in vivo, Persian speedwell (Veronica persica); details: foliage application, 320 g/ha, three weeks after application
# Summary of the method: as §1
# [6] = system: Italian ryegrass; assay: Test Example 4: herbicidal effect by soil treatment (Table 19, symbol K); assay type: in vivo, Italian ryegrass (Lolium multiflorum); details: amount of applied herbicide 320 g/ha
# Summary of the method: as §2
# [7] = system: wild oat; assay: Test Example 5: herbicidal effect by foliage application, plastic box (Table 20, symbol I); assay type: in vivo, wild oat (Avena fatua); details: foliage application, 320 g/ha, three weeks after application
# Summary of the method: as §1
# [8] = system: blackgrass; assay: Test Example 4: herbicidal effect by soil treatment (Table 19, symbol J); assay type: in vivo, blackgrass (Alopecurus myosuroides); details: amount of applied herbicide 320 g/ha
# Summary of the method: as §2
# [9] = system: barnyard grass; assay: Test Example 4: herbicidal effect by soil treatment (Table 19, symbol H); assay type: in vivo, barnyard grass (Echinochloa crus-galli); details: amount of applied herbicide 320 g/ha
# Summary of the method: as §2
# [10] = system: windgrass; assay: Test Example 5: herbicidal effect by foliage application, plastic box (Table 20, symbol L); assay type: in vivo, windgrass (Apera spica-venti); details: foliage application, 320 g/ha, three weeks after application
# Summary of the method: as §1
# [11] = system: Italian ryegrass; assay: Test Example 5: herbicidal effect by foliage application, plastic box (Table 20, symbol K); assay type: in vivo, Italian ryegrass (Lolium multiflorum); details: foliage application, 320 g/ha, three weeks after application
# Summary of the method: as §1
# [12] = system: blackgrass; assay: Test Example 5: herbicidal effect by foliage application, plastic box (Table 20, symbol J); assay type: in vivo, blackgrass (Alopecurus myosuroides); details: foliage application, 320 g/ha, three weeks after application
# Summary of the method: as §1
# [13] = system: lambsquarters; assay: Test Example 4: herbicidal effect by soil treatment (Table 19, symbol O); assay type: in vivo, lambsquarters (Chenopodium album); details: amount of applied herbicide 320 g/ha
# Summary of the method: as §2
# [14] = system: velvetleaf; assay: Test Example 4: herbicidal effect by soil treatment (Table 19, symbol M); assay type: in vivo, velvetleaf (Abutilon theophrasti); details: amount of applied herbicide 320 g/ha
# Summary of the method: as §2
# [15] = system: false cleavers; assay: Test Example 4: herbicidal effect by soil treatment (Table 19, symbol Q); assay type: in vivo, false cleavers (Galium spurium); details: amount of applied herbicide 320 g/ha
# From the text: [Test Example 4] Herbicidal Effect Test by Soil Treatment
# Sterilized diluvial soil was placed in a plastic box having a length of 21 cm, a width of 13 cm, and a depth of 7 cm. The seeds of each of southern crabgrass, green foxtail, barnyard grass, wild oat, blackgrass, Italian ryegrass, windgrass, velvetleaf, redroot pigweed, lambsquarters, chickweed, false cleavers, persian speedwell, corn, soybean, rice, wheat, beet, and rapeseed were sowed in a spot-like manner and covered with the soil having a thickness of about 1.5 cm. Subsequently, the emulsion agent of the compound of the present invention prepared according to Formulation Example 2 was diluted with water so as to achieve a predetermined herbicide amount, and the diluted emulsion agent was uniformly applied to the surface of the soil with a small-sized spray. The plastic box was placed in a greenhouse at 25° C. to 30° C. for growth of the plants. Three weeks after the herbicide application, the effect of the herbicide on each plant was evaluated according to the criteria of Test Example 1.
# [16] = system: velvetleaf; assay: Test Example 5: herbicidal effect by foliage application, plastic box (Table 20, symbol M); assay type: in vivo, velvetleaf (Abutilon theophrasti); details: foliage application, 320 g/ha, three weeks after application
# Summary of the method: as §1
# [17] = system: barnyard grass; assay: Test Example 3: herbicidal effect by foliage application, Wagner pot (Table 18, symbol H); assay type: in vivo, barnyard grass (Echinochloa crus-galli); details: 320 g/ha
# Summary of the method: as §3
# [18] = system: windgrass; assay: Test Example 4: herbicidal effect by soil treatment (Table 19, symbol L); assay type: in vivo, windgrass (Apera spica-venti); details: amount of applied herbicide 320 g/ha
# Summary of the method: as §2
# [19] = system: redroot pigweed; assay: Test Example 4: herbicidal effect by soil treatment (Table 19, symbol N); assay type: in vivo, redroot pigweed (Amaranthus retroflexus); details: amount of applied herbicide 320 g/ha
# Summary of the method: as §2
# [20] = system: Chinese sprangletop; assay: Test Example 3: herbicidal effect by foliage application, Wagner pot (Table 18, symbol D); assay type: in vivo, chinese sprangletop (Leptochloa chinensis); details: 320 g/ha
# Summary of the method: as §3
# [21] = system: redroot pigweed; assay: Test Example 5: herbicidal effect by foliage application, plastic box (Table 20, symbol N); assay type: in vivo, redroot pigweed (Amaranthus retroflexus); details: foliage application, 320 g/ha, three weeks after application
# Summary of the method: as §1
# [22] = system: green foxtail; assay: Test Example 4: herbicidal effect by soil treatment (Table 19, symbol G); assay type: in vivo, green foxtail (Setaria viridis); details: amount of applied herbicide 320 g/ha
# Summary of the method: as §2
# [23] = system: green foxtail; assay: Test Example 5: herbicidal effect by foliage application, plastic box (Table 20, symbol G); assay type: in vivo, green foxtail (Setaria viridis); details: foliage application, 320 g/ha, three weeks after application
# Summary of the method: as §1
# [24] = system: barnyard grass; assay: Test Example 5: herbicidal effect by foliage application, plastic box (Table 20, symbol H); assay type: in vivo, barnyard grass (Echinochloa crus-galli); details: foliage application, 320 g/ha, three weeks after application
# Summary of the method: as §1
# [25] = system: wild oat; assay: Test Example 4: herbicidal effect by soil treatment (Table 19, symbol I); assay type: in vivo, wild oat (Avena fatua); details: amount of applied herbicide 320 g/ha
# Summary of the method: as §2
# [26] = system: lambsquarters; assay: Test Example 5: herbicidal effect by foliage application, plastic box (Table 20, symbol O); assay type: in vivo, lambsquarters (Chenopodium album); details: foliage application, 320 g/ha, three weeks after application
# Summary of the method: as §1
compound,measurement,setting,value
Cn1ncc(O)c(-c2c(-c3ccc(F)cc3)sc3ccccc23)c1=O [1-001],"herbicidal effect grade, F: southern crabgrass",[1],0 (Herbicidal rate of 5% or less (almost no effect))
same,"herbicidal effect rating, F: southern crabgrass",[2],0 (Herbicidal rate of 5% or less (almost no effect))
same,"herbicidal effect grade, P: chickweed",[3],5 (Herbicidal rate of 90% or more (almost completely withered))
same,"herbicidal effect on E (rice flat sedge), rating 0-5",[4],5 (Herbicidal rate of 90% or more (almost completely withered))
same,"herbicidal effect grade, R: persian speedwell",[5],3 (Herbicidal rate of 40% or more and less than 70%)
same,"herbicidal effect rating, K: Italian ryegrass",[6],0 (Herbicidal rate of 5% or less (almost no effect))
same,"herbicidal effect grade, I: wild oat",[7],0 (Herbicidal rate of 5% or less (almost no effect))
same,"herbicidal effect rating, J: blackgrass",[8],0 (Herbicidal rate of 5% or less (almost no effect))
same,"herbicidal effect rating, H: barnyard grass",[9],0 (Herbicidal rate of 5% or less (almost no effect))
same,"herbicidal effect grade, L: windgrass",[10],0 (Herbicidal rate of 5% or less (almost no effect))
same,"herbicidal effect grade, K: Italian ryegrass",[11],0 (Herbicidal rate of 5% or less (almost no effect))
same,"herbicidal effect grade, J: blackgrass",[12],0 (Herbicidal rate of 5% or less (almost no effect))
same,"herbicidal effect rating, O: lambsquarters",[13],0 (Herbicidal rate of 5% or less (almost no effect))
same,"herbicidal effect rating, M: velvetleaf",[14],0 (Herbicidal rate of 5% or less (almost no effect))
same,"herbicidal effect rating, Q: false cleavers",[15],0 (Herbicidal rate of 5% or less (almost no effect))
same,"herbicidal effect grade, M: velvetleaf",[16],4 (Herbicidal rate of 70% or more and less than 90%)
same,"herbicidal effect on H (barnyard grass), rating 0-5",[17],3 (Herbicidal rate of 40% or more and less than 70%)
same,"herbicidal effect rating, L: windgrass",[18],0 (Herbicidal rate of 5% or less (almost no effect))
same,"herbicidal effect rating, N: redroot pigweed",[19],4 (Herbicidal rate of 70% or more and less than 90%)
same,"herbicidal effect on D (Chinese sprangletop), rating 0-5",[20],0 (Herbicidal rate of 5% or less (almost no effect))
same,"herbicidal effect grade, N: redroot pigweed",[21],1 (Herbicidal rate of 5% or more and less than 20%)
same,"herbicidal effect rating, G: green foxtail",[22],0 (Herbicidal rate of 5% or less (almost no effect))
same,"herbicidal effect grade, G: green foxtail",[23],0 (Herbicidal rate of 5% or less (almost no effect))
same,"herbicidal effect grade, H: barnyard grass",[24],0 (Herbicidal rate of 5% or less (almost no effect))
same,"herbicidal effect rating, I: wild oat",[25],0 (Herbicidal rate of 5% or less (almost no effect))
same,"herbicidal effect grade, O: lambsquarters",[26],2 (Herbicidal rate of 20% or more and less than 40%)
Cc1nn(C)c(=O)c(-c2c(-c3ccc(Cl)cc3)sc3cc(F)c(F)cc23)c1O [5-082],herbicidal effect on southern crabgrass (F),[1],3 (Herbicidal rate of 40% or more and less than 70%)
same,"F: southern crabgrass, herbicidal effect grade",[2],0 (Herbicidal rate of 5% or less (almost no effect))
same,herbicidal effect on rice flat sedge (E),[4],4 (Herbicidal rate of 70% or more and less than 90%)
same,herbicidal effect on persian speedwell (R),[5],5 (Herbicidal rate of 90% or more (almost completely withered))
same,"K: Italian ryegrass, herbicidal effect grade",[6],4 (Herbicidal rate of 70% or more and less than 90%)
same,herbicidal effect on wild oat (I),[7],3 (Herbicidal rate of 40% or more and less than 70%)
same,"J: blackgrass, herbicidal effect grade",[8],0 (Herbicidal rate of 5% or less (almost no effect))
same,"H: barnyard grass, herbicidal effect grade",[9],0 (Herbicidal rate of 5% or less (almost no effect))
same,herbicidal effect on windgrass (L),[10],5 (Herbicidal rate of 90% or more (almost completely withered))
same,herbicidal effect on Italian ryegrass (K),[11],5 (Herbicidal rate of 90% or more (almost completely withered))
same,herbicidal effect on blackgrass (J),[12],3 (Herbicidal rate of 40% or more and less than 70%)
same,"O: lambsquarters, herbicidal effect grade",[13],3 (Herbicidal rate of 40% or more and less than 70%)
same,"M: velvetleaf, herbicidal effect grade",[14],0 (Herbicidal rate of 5% or less (almost no effect))
same,"Q: false cleavers, herbicidal effect grade",[15],3 (Herbicidal rate of 40% or more and less than 70%)
same,herbicidal effect on velvetleaf (M),[16],5 (Herbicidal rate of 90% or more (almost completely withered))
same,herbicidal effect on barnyard grass (H),[17],5 (Herbicidal rate of 90% or more (almost completely withered))
same,"L: windgrass, herbicidal effect grade",[18],4 (Herbicidal rate of 70% or more and less than 90%)
same,"N: redroot pigweed, herbicidal effect grade",[19],4 (Herbicidal rate of 70% or more and less than 90%)
same,herbicidal effect on Chinese sprangletop (D),[20],4 (Herbicidal rate of 70% or more and less than 90%)
same,"G: green foxtail, herbicidal effect grade",[22],1 (Herbicidal rate of 5% or more and less than 20%)
same,herbicidal effect on green foxtail (G),[23],3 (Herbicidal rate of 40% or more and less than 70%)
same,herbicidal effect on barnyard grass (H),[24],4 (Herbicidal rate of 70% or more and less than 90%)
same,"I: wild oat, herbicidal effect grade",[25],0 (Herbicidal rate of 5% or less (almost no effect))
same,herbicidal effect on lambsquarters (O),[26],5 (Herbicidal rate of 90% or more (almost completely withered))
